Test results from patent US9095565B2, “Methods for treating blood disorders” (Phoenicia Biosciences, Inc., priority 2006, dated 2015).

Columns and labels:
[1] = test system: γ globin promoter; test: β/γ-globin promoter driven reporter gene assay; assay type: cell-based; details: Table 2
[2] = test system: γ-globin mRNA; test: γ-globin mRNA by RT-PCR in erythroid colonies cultured from cord blood; assay type: cell-based, human; details: for Concentration required: increase in fetal globin mRNA, erythroid colonies from cord blood; for No. of Positive responses: positive cultures/cultures tested
Protocol: γ-globin mRNA was analyzed in control and treated erythroid colonies cultured from cord blood, by RT-PCR.

[3] = test system: γ-globin gene reporter; test: Related study: relative luciferase reporter gene induction; assay type: cell-based
Protocol: (§1) In a related study, the relative luciferase reporter gene induction, γ-globin gene induction, and F cell production was tested for several of the candidate compounds. The relative in vitro γ-globin gene reporter stimulation for the tested compounds was as follows: compound P>M>W=R=Y. The relative in vitro γ-globin gene induction for the tested compounds was as follows: P>R=M>Y>W>. The relative in vitro F-cell production was as follows: W>Y>R>M>P. The relative potency for F-cell production was as follows: R>M>Y>P>W.

[4] = test system: γ-globin gene; test: Related study: relative in vitro γ-globin gene induction; assay type: cell-based
Protocol: as §1

[5] = test system: F-cell; test: Related study: in vitro F cell production; assay type: cell-based
Protocol: as §1

[6] = test system: cells expressing fetal globin (F-cells); test: Experiment 1: proportion of F-cells in hematopoietic colonies by FACScan; assay type: cell-based, human; details: same low concentrations as for fetal globin mRNA induction
Protocol: (§2) Erythroid burst-forming units (BFU-E) (erythroid progenitors) and colony-forming units granulocyte-macrophage (CFU-GM) (myeloid colonies) were cultured in semi-solid or in two-phase suspension media, with or without hematopoietic growth factors at high levels (e.g., erythropoietin at 3 U/ml) or reduced levels (BFU-E cell proliferation was evaluated by enumeration in colonies developing in the presence of reduced amounts of erythropoietin (0.5 U/ml) rather than 3 U (or 3000 mU)/ml, which is standard for these experimental systems), from cord blood or the peripheral blood of several types of humans. Experiments were carried out on samples derived from 1) β-thalassemia patients who expressed variable levels of fetal globin at baseline (and in untreated control cultures) and represent a variety of potential individual responses, 2) from normal umbilical cord blood samples, which express 40-50% fetal globin at baseline (and in untreated control cultures), 3) from CD34+ cells isolated from normal adult peripheral blood, which expressed low levels of fetal globin in untreated control cultures and at baseline; and 4) from peripheral blood of patients with sickle cell disease who were receiving treatment with hydroxyurea. These biological samples provide a range of potential difficulty in stimulating fetal globin expression in human patients.
Hematopoietic colonies were enumerated with or without (+/−) the test compounds, and compared to colonies which developed in the presence of hematopoietic growth factors alone from the same subject (untreated control colonies), and proportions of cells expressing fetal globin (F-cells) were analyzed by FACScan analysis.

[7] = test system: Erythroid colonies (BFU-E); test: Experiment 2: erythroid colonies (BFU-E) cultured from patients with beta thalassemia; assay type: cell-based, human; details: optimal panel of growth factors
Protocol: as §2
Erythroid colonies were cultured from patients with beta thalassemia, either without any test compounds (Control), only an optimal panel of hematopoietic growth factors, or with one of the test compounds M, P, T, 2-methyl-1-benzofuran-4-carboxylic acid, V, W, X, Y, AK, AC, or AI. […] Colony numbers were increased above the control cultures (% BFU-E/Control) by anywhere from 25% to 230%. Each of the listed test compounds was tested in at least 5 different patients' blood and the differences were statistically significant.

[8] = test system: BFU-E; test: BFU-E cultured from cord blood; assay type: cell-based, human
Protocol: as §2
In a related study, BFU-E cultured from cord blood, was tested with or without compound M, P, R, T, W, Y, Z, AI, F, or 3-(5-chlorothien-3-yl)acrylic acid.

[9] = test system: myeloid colonies; test: Experiment 3: myeloid colonies in cord blood cultured without added growth factors; assay type: cell-based, human; details: no added growth factors
Protocol: as §2
Control colonies were established in cultures with no added growth factors to support myelopoiesis, in Iscove's Modified Dulbecco's Media (IMDM) methylcellulose media with charcoal-absorbed fetal bovine serum, beta mercaptoethanol, BSA.

[10] = Pharmacokinetic profiles in anemic juvenile baboons (plasma levels by HPLC-MS); assay type: in vivo; details: 10 mg/kg oral, baboon
Protocol: Juvenile baboons were catheterized with venous and arterial catheters, and were phlebotomized a set amount of blood daily to maintain anemia with a hemoglobin level of 7.0-7.5 g/dl, from a baseline normal hemoglobin level of (12-13 g/dl). Normal saline was infused to replace the amount of blood withdrawn. This degree of phlebotomy exchanges the blood volume every 10-20 days. Following establishment of the stable level of anemia, a test compound was administered once/day, either intravenously or orally, and blood was withdrawn through the arterial catheter for analysis of globin mRNA or for analysis of the test compound in the plasma by HPLC-MS. Pharmacokinetic profiles were established from the plasma levels and oral bioavailability (comparing area under the curve between IV and oral plasma levels) was determined for the test compounds.

[11] = test system: fetal globin mRNA; test: Fetal globin induction in phlebotomized anemic baboons; assay type: in vivo, baboon; details: for fetal globin mRNA (% of non-alpha globin): baseline 26%
Protocol: Juvenile baboons were catheterized with venous and arterial catheters, and were phlebotomized a set amount of blood daily to maintain anemia with a hemoglobin level of 7.0-7.5 g/dl, from a baseline normal hemoglobin level of (12-13 g/dl). Normal saline was infused to replace the amount of blood withdrawn. This degree of phlebotomy exchanges the blood volume every 10-20 days.
Fetal globin mRNA was analyzed at baseline anemia before and following administration of test compounds. Globin chain protein synthesis confirmed the mRNA findings.
Following establishment of the stable level of anemia, a test compound was administered once/day, either intravenously or orally, and blood was withdrawn through the arterial catheter for analysis of globin mRNA or for analysis of the test compound in the plasma by HPLC-MS. Pharmacokinetic profiles were established from the plasma levels and oral bioavailability (comparing area under the curve between IV and oral plasma levels) was determined for the test compounds.
In anemic Baboon 5002, baseline fetal globin mRNA, assayed by RNAse protection, was 26% of non-alpha globin. With treatment with compound Y at 5 mg/kg/dose, fetal globin mRNA increased to 48% of non-alpha globin, an 85% increase over the baseline level. Treatment with compound AK at 50 mg/kg induced a 51% fetal globin mRNA increase, a 96% increase over the baseline level. […] The human equivalent dose is 20% of these doses, or 1 mg/kg, 10 mg/kg, or 8 mg/kg respectively. Thus, these 3 compounds are highly suitable for pharmaceutical compositions at doses that human patients can readily tolerate.

[12] = test system: Erythroid cells cultured from adult blood; test: Experiment 4: erythroid cells cultured from adult blood CD34+ cells (cell counts, qRT-PCR, HPLC of hemoglobins); assay type: cell-based, human
Protocol: Erythroid cells cultured from adult blood are low-HbF expressing and are the most difficult to alter with regard to globin expression. This experiment analyzed erythroid cells cultured from adult blood in the presence or absence of representative test compounds.
Erythroid cells were generated by culturing purified CD34+ cells in Flt-3 ligand, stem cell factor (SCF) and IL-3 for seven days followed by growth in EPO for 14 days. For treatment, cells were cultured as above in a T75 flask then split into multiple flasks on day 8 and treatment with the test compounds was begun. Compound P or other test compounds were diluted from stock solutions with the microliter volumes of stock added to each culture flask for final working concentrations. Cells were enumerated every two days by hemacytometer count. RNA was harvested from 10^6 cells every two days using RNeasy Plus Mini Kit (Qiagen) and qRT-PCR performed using IQ SybrGreen Supermix on an Opticon Monitor instrument (MJ Research). […] Separation of hemoglobins was performed by cation exchange HPLC using a 35×4.6 mm; […] PolyCAT A column (Nest Group) as described previously by Cheryl Rognerud and Ching-Nan Ou, and outlined by the column manufacturer.
QPCR primers were designed using known sequences for α-globin, β-globin, γ-globin, β-actin and B3PD. Primers were designed to span at least one […].

[13] = test system: fetal globin gene promoter; test: Example 8: factor occupancy of globin gene promoters in primary erythroid cells; assay type: cell-based
Excerpt: This is a selective effect on the fetal (gamma globin) gene promoter, without generalized widespread epistatic effects or any effects on the beta globin promoter, as other agents tend to cause. The transcription factor EKLF and the remodeling complex Brg1 and Pol II became bound to the promoter in association with gene activation. In contrast, there were no effects on the beta globin gene promoter. These compounds therefore produce highly specific activating effects solely on the globin gene promoter which would be beneficial to induce for therapy of the beta globin gene disorders, and provide a targeted molecular activity.

[14] = test system: Erythroid colonies; test: Experiment 6: erythroid colony growth from sickle cell patients receiving hydroxyurea; assay type: cell-based, human
Protocol: Erythroid colonies from the peripheral blood of 4 patients with sickle cell disease who were receiving treatment with Hydroxyurea (HU), a chemotherapeutic agent which suppresses marrow growth and reduces red blood cell production, were cultured alone or with added test compounds M, P, 2-methyl-1-benzofuran-4-carboxylic acid, V, W, Y (racemic mixture) or AI. L-arginine was added as a neutral control, and had no effect on numbers of erythroid colonies.
2-methyl-1-benzofuran-4-carboxylic acid and compound V require additional samples for statistical evaluation, but had positive effects in 3/3 different patients' cultures. These findings indicate that the test compounds stimulate erythroid cell production particularly in conditions of anemia and bone marrow suppression.

Row | SMILES | % γ globin promoter induction (above untreated control) [1] | Concentration required [2] [µM] | No. of Positive responses [2] | relative in vitro γ-globin gene reporter stimulation (rank order) [3] | relative in vitro γ-globin gene induction (rank order) [4] | relative in vitro F-cell production (rank order) [5] | relative potency for F-cell production (rank order) [5] | proportion of F-cells above the percentage in untreated controls [6] | number of erythroid colonies compared to matched control cultures [7] | numbers of BFU-E colonies compared to controls [8] | production of myeloid colonies compared to untreated control [9] | effect on numbers of erythroid colonies compared to control [14] | other results
1 | COc1cc(OC)nc(SC(C(=O)O)C(C)C)n1 (racemic) [Compound Y] | ** (‘**’ indicates a 100%-200% increase) | 5 | 1/3 | P>M>W=R=Y | P>R=M>Y>W | W>Y>R>M>P | R>M>Y>P>W | significant increases | increased the number of colonies | increased numbers of colonies | stimulated production of myeloid colonies |  | initial burst level [10]: does not produce an undesirable high initial burst level; persistence in plasma [10]: greater than 24 hours; increase over the baseline level of fetal globin mRNA ([11]; Baboon 5002, 5 mg/kg/dose): 85%; fetal globin mRNA (% of non-alpha globin) ([11]; Baboon 5002, 5 mg/kg/dose, RNAse protection): 48%
2 | CCC(Nc1ncnc2ccccc12)C(=O)O (stereo not shown) [Compound M] | ** (‘**’ indicates a 100%-200% increase) | 5 | 4/6 | P>M>W=R=Y | P>R=M>Y>W | W>Y>R>M>P | R>M>Y>P>W | significant increases | increased the number of colonies | increased numbers of colonies | stimulated production of myeloid colonies |  | increase over the baseline level of fetal globin mRNA ([11]; Baboon 5002, 40 mg/kg): 257%; fetal globin mRNA (% of non-alpha globin) ([11]; Baboon 5002, 40 mg/kg): 67%
3 | O=C(O)c1cccc(-c2cc3ccccc3oc2=O)c1 [Compound P] | *** (‘***’ indicates an over 200% increase of γ globin promoter induction over untreated controls) | 20 | 6/6 | P>M>W=R=Y | P>R=M>Y>W | W>Y>R>M>P | R>M>Y>P>W | significant increases | increased the number of colonies | increased numbers of colonies |  |  | Cell counts vs cells cultured with erythropoietin alone ([12]; 20 microM): increased; increase in expression of fetal globin (Hemoglobin F protein) vs untreated control ([12]; 100 micromolar, one cycle of erythroid differentiation): 19 fold; production/expression of alpha globin ([12]; different doses): no effect; production of beta globin ([12]; same doses as increases in fetal globin mRNA): reciprocal decrease; induction of fetal globin (% of globin expression) ([11]; phlebotomized anemic baboon with no baseline fetal globin): 7%; beta globin expression ([11]; same baboon, baseline 100% beta globin): concommitant reduction; EKLF and Brg1 ATPase proteins at the gamma-globin gene promoter [13]: induced recruitment; effects on the beta globin gene promoter [13]: no effects; repressor complex of HDAC3, NCoR at the fetal globin gene promoter [13]: displacement of a repressor complex of HDAC3, NCoR
4 | NC(=O)NO [Hydroxyurea] |  |  |  |  |  |  |  |  |  |  |  | decreased numbers of erythroid colonies | 
5 | N=C(N)NCCC[C@H](N)C(=O)O [L-arginine] |  |  |  |  |  |  |  |  |  |  |  | no effect | 
